According to US11198695B2, “Fused ring derivative having MGAT-2 inhibitory activity” (Shionogi & Co., Ltd., priority 2017, dated 2021):

What follows are compounds tested against recombinant human MGAT2 (Homo sapiens (Human), UniProt Q3SYC2) (assay: Measurement of human MGAT2 inhibitory activity). Conditions: read-out: IC50 (concentration exhibiting 50% enzyme inhibition), Table 53.
Format: biochemical
Procedure, shortened: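 RapidFire ESI-MS read-out of the diolein/diolein-d5 peak ratio gave % inhibition, with no-enzyme and full-enzyme wells as 100% and 0%. Reactions ran 1 h at room temperature at pH 7.4 (phosphate, 2 mmol/L DTT), using Flag-tagged human MGAT2 membranes from Sf9 cells and a substrate solution of 30 μmol/L 2-oleoylglycerol and 10 μmol/L oleoyl-CoA.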

Chain of recombinant human MGAT2 (Q3SYC2 whole entry): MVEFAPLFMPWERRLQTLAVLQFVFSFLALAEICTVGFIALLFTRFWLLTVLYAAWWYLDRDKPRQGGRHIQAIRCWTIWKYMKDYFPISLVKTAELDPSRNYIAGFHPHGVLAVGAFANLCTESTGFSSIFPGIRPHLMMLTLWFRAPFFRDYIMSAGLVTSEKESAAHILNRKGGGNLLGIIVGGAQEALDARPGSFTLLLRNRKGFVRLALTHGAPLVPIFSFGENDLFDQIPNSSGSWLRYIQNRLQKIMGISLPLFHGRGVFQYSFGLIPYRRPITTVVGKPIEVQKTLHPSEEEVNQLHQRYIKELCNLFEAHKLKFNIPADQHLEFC

| SMILES | IC50 [nM] |
| --- | --- |
| CS(=O)(=O)CC(=O)Nc1c2c(nn1-c1ccc(C#N)cn1)C[C@]1(CCc3cc(N4CC(F)C4)ccc31)NC2=O [II-55] | 44 |
| COCCCn1nc2c(c1-c1nn[nH]n1)C(=O)N[C@@]1(CCc3cc(OCCCC(F)(F)F)ccc31)C2 [II-56] | 47 |
| COC1CN(c2ccc3c(c2)CC[C@]32Cc3nn(-c4ccc(C#N)cn4)c(NC(=O)CS(C)(=O)=O)c3C(=O)N2)C1 [II-57] | 66 |
| CS(=O)(=O)CC(=O)Nc1c2c(nn1CCC1CC1)CC1(CN(c3ccc(C(F)(F)F)cc3)C1)NC2=O [II-58] | 16 |
| N#Cc1ccc(-n2nc3c(c2NC(=O)c2cocn2)C(=O)N[C@@]2(CCc4cc(OCC(F)(F)F)ccc42)C3)nc1 [II-59] | 33 |
| O=C(COC(F)(F)F)Nc1c2c(nn1CCC1CC1)C[C@]1(CCc3cc(OCC(F)(F)F)ccc31)NC2=O [II-60] | 93 |
| Cn1c2c(c(NC(=O)CS(C)(=O)=O)c1-c1ccccc1)C(=O)N[C@@]1(CCc3cc(OCC(F)(F)F)ccc31)C2 [II-61] | 16.7 |
| N#Cc1ccc(-n2nc3c(c2C(=O)NCC2(CO)COC2)C(=O)N[C@@]2(CCc4cc(OCC(F)(F)F)ccc42)C3)nc1 [II-62] | 15.3 |
| CC(C)(O)C1CN(c2ccc3c(c2)CC[C@@]32Cc3nn(CCC4CC4)c(NC(=O)CS(C)(=O)=O)c3C(=O)N2)C1 [II-63] | 300 |
| CS(=O)(=O)CC(=O)Nc1c2c(nn1CCCOC(F)(F)F)C[C@]1(CCOc3cc(OCC(F)(F)F)ccc31)NC2=O [II-64] | 2.9 |
| CS(=O)(=O)CC(=O)Nc1c2c(nn1CCCC(F)(F)F)C[C@]1(CCOc3cc(OCC(F)(F)F)ccc31)NC2=O [II-65] | 1.9 |
| CS(=O)(=O)CC(=O)Nc1c2c(nn1CCC1CC1)C[C@@]1(CCc3cc(CCC(F)(F)F)ccc31)NC2=O [II-66] | 2.5 |
| CS(=O)(=O)CC(=O)Nc1c2c(nn1-c1ccc(F)c(F)c1)C[C@]1(CCOc3cc(OCC(F)(F)F)ccc31)NC2=O [II-67] | 2.64 |
| COc1nccc(NCc2c3c(nn2CCC2CC2)C[C@@]2(CCc4cc(OCC(F)(F)F)ccc42)NC3=O)n1 [II-68] | 420 |
| O=C1N[C@]2(CCc3cc(OCC(F)(F)F)ccc32)Cc2nn(CCC3CC3)c(CNc3ccnc(O)n3)c21 [II-69] | 43.9 |
| CNS(=O)(=O)CC(=O)Nc1c2c(nn1-c1ccc(C#N)cn1)C[C@@]1(CCc3cc(OCC(F)(F)F)ccc31)NC2=O [II-70] | 3.94 |
| Cc1nocc1-c1ccc2c(c1)CC[C@@]21Cc2nn(CCC3CC3)c(NC(=O)CS(C)(=O)=O)c2C(=O)N1 [II-71] | 12.6 |
| N#Cc1ccc(-n2nc3c(c2NC(=O)C2CS(=O)(=O)C2)C(=O)N[C@@]2(CCc4cc(OCC(F)(F)F)ccc42)C3)nc1 [II-72] | 3.69 |
| CS(=O)(=O)CC(=O)Nc1c2c(nn1-c1ccc(C#N)cn1)CC1(CN(c3c(F)cc(C(F)(F)F)cc3F)C1)NC2=O [II-74] | 2.3 |
| CS(=O)(=O)CC(=O)Nc1c2c(nn1-c1ccc(C#N)cn1)C[C@]1(CCc3cc(Cl)ccc31)NC2=O [II-75] | 3.69 |
| CS(=O)(=O)CC(=O)Nc1c2c(nn1CCC1CC1)C[C@@]1(CCc3cc(C4CC4)ccc31)NC2=O [II-76] | 6 |
| CS(=O)(=O)CC(=O)Nc1c2c(nn1CCC1CC1)C[C@@]1(CCc3cc(OCC(F)F)ccc31)NC2=O [II-77] | 5.5 |

| SMILES | IC50 [nM] |
| --- | --- |
| CS(=O)(=O)CC(=O)Nc1c2c(nn1-c1ccc(C#N)cn1)CC1(CN(c3nc(C(F)(F)F)cs3)C1)NC2=O [II-78] | 45 |
| CS(=O)(=O)CC(=O)Nc1c2c(nn1-c1ccc(C#N)cn1)CC1(CN(c3nc(C(F)(F)F)co3)C1)NC2=O [II-79] | 110 |
| CC(C)c1ccc(N2CC3(Cc4nn(-c5ccc(C#N)cn5)c(NC(=O)CS(C)(=O)=O)c4C(=O)N3)C2)cc1 [II-80] | 9.1 |
| O=C1N[C@@]2(CCc3cc(OCC(F)(F)F)ccc32)Cc2nn(CCC3CC3)c(NC(=O)[C@H]3CCCS3(=O)=O)c21 [II-81] | 46.6 |
| CS(=O)(=O)CC(=O)Nc1c2c(nn1CCC1CC1)C[C@@]1(CCc3cc(OCC4CC(F)(F)C4)ccc31)NC2=O [II-82] | 2.49 |
| CS(=O)(=O)CC(=O)Nc1c2c(nn1CCC1CC1)C[C@@]1(CCc3cc(-c4cnn(C(F)(F)F)c4)ccc31)NC2=O [II-83] | 1.99 |
| CS(=O)(=O)CC(=O)Nc1c2c(nn1CCCC(F)(F)F)C[C@@]1(NC2=O)c2ccc(OCC(F)(F)F)cc2CC1(F)F [II-85] | 45.5 |
| Cc1ccc(-n2nc3c(c2NC(=O)CS(C)(=O)=O)C(=O)N[C@@]2(C3)c3ccc(OCC(F)(F)F)cc3CC2(F)F)nc1 [II-86] | 3.37 |
| CS(=O)(=O)CC(=O)Nc1c2c(nn1-c1ccc(C#N)cn1)C[C@]1(NC2=O)c2ccc(OCC(F)(F)F)cc2CC1(F)F [II-87] | 2.63 |
| CS(=O)(=O)CC(=O)Nc1c2c(nn1-c1ccc(F)c(F)c1)C[C@]1(NC2=O)c2ccc(OCC(F)(F)F)cc2CC1(F)F [II-88] | 3.67 |
| CS(=O)(=O)CC(=O)Nc1c2c(nn1-c1ccc(C#N)cn1)CC1(CN(c3cccc(C(F)(F)F)c3)C1)NC2=O [II-89] | 10.8 |
| CS(=O)(=O)CC(=O)Nc1c2c(nn1-c1ccc(C#N)cn1)CC1(CN(c3ccc(C(F)(F)F)nc3)C1)NC2=O [II-90] | 40 |
| N#Cc1ccc(-n2nc3c(c2NC(=O)C2CCS(=O)(=O)C2)C(=O)N[C@@]2(CCc4cc(OCC(F)(F)F)ccc42)C3)nc1 (some centres unmarked) [II-91] | 2.79 |
| CS(=O)(=O)CC(=O)Nc1c2c(nn1CCC1CC1)C[C@@]1(NC2=O)c2ccc(OCC(F)(F)F)cc2CC1(F)F [II-92] | 44.3 |
| C[C@@]1(c2ccc(OCC(F)(F)F)cc2F)Cc2nn(-c3ccc(C#N)cn3)c(NC(=O)CS(C)(=O)=O)c2C(=O)N1 [II-95] | 4.29 |
| C[C@@]1(c2ccc(OCC(F)(F)F)cc2F)Cc2nn(-c3ccc(F)c(F)c3)c(NC(=O)CS(C)(=O)=O)c2C(=O)N1 [II-96] | 8.88 |
| CS(=O)(=O)CC(=O)Nc1c2c(nn1CCCOC(F)(F)F)C[C@@]1(NC2=O)c2ccc(OCC(F)(F)F)cc2CC1(F)F [II-97] | 3.97 |
| CS(=O)(=O)CC(=O)Nc1c2c(nn1CCC1CC1)C[C@@]1(CCc3cc(OC4CC4)ccc31)NC2=O [II-98] | 7.1 |
| CS(=O)(=O)CC(=O)Nc1c2c(nn1CCC1CC1)C[C@@]1(CCc3cc(OCCOCC(F)F)ccc31)NC2=O [II-99] | 9.59 |
| CS(=O)(=O)CC(=O)Nc1c2c(nn1CCC1CC1)C[C@@]1(CCc3cc(OCCOCC(F)(F)F)ccc31)NC2=O [II-100] | 4.76 |
| CS(=O)(=O)CC(=O)Nc1c2c(nn1CCC1CC1)C[C@@]1(CCc3cc(OCCCC(F)(F)F)ccc31)NC2=O [II-101] | 1.25 |
| CS(=O)(=O)CC(=O)Nc1c2c(nn1-c1ccc(C#N)cn1)CC1(Cc3cc(F)c(F)cc3C1)NC2=O [II-102] | 56.3 |

| SMILES | IC50 [nM] |
| --- | --- |
| CS(=O)(=O)CC(=O)Nc1c2c(nn1-c1ccc(C#N)c(F)c1)C[C@]1(CCc3cc(OCC(F)(F)F)ccc31)NC2=O [II-104] | 11.5 |
| CS(=O)(=O)CC(=O)Nc1c2c(nn1-c1ccc(C3CC3)nn1)C[C@]1(CCc3cc(OCC(F)(F)F)ccc31)NC2=O [II-105] | 2.68 |
| CS(=O)(=O)CC(=O)Nc1c2c(nn1-c1ccc(C(F)(F)F)nn1)C[C@]1(CCc3cc(OCC(F)(F)F)ccc31)NC2=O [II-106] | 1.72 |
| CS(=O)(=O)CC(=O)Nc1c2c(nn1-c1ccon1)C[C@]1(CCc3cc(OCC(F)(F)F)ccc31)NC2=O [II-107] | 40.7 |
| N#Cc1ccc(-n2nc3c(c2C(=O)NCC2(O)CCC2)C(=O)N[C@@]2(CCc4cc(OCC(F)(F)F)ccc42)C3)nc1 [II-108] | 2.51 |
| N#Cc1ccc(-n2nc3c(c2C(=O)NCC2(CO)CCCC2)C(=O)N[C@@]2(CCc4cc(OCC(F)(F)F)ccc42)C3)nc1 [II-109] | 23.1 |
| N#Cc1ccc(-n2nc3c(c2C(=O)NC2(C#N)CC2)C(=O)N[C@@]2(CCc4cc(OCC(F)(F)F)ccc42)C3)nc1 [II-110] | 30.4 |
| CS(=O)(=O)CCNC(=O)c1c2c(nn1-c1ccc(C#N)cn1)C[C@]1(CCc3cc(OCC(F)(F)F)ccc31)NC2=O [II-111] | 50.8 |
| N#Cc1ccc(-n2nc3c(c2C(=O)NCC2(O)CC2)C(=O)N[C@@]2(CCc4cc(OCC(F)(F)F)ccc42)C3)nc1 [II-112] | 5.28 |
| N#Cc1ccc(-n2nc3c(c2C(=O)NC2(C#N)CCCCC2)C(=O)N[C@@]2(CCc4cc(OCC(F)(F)F)ccc42)C3)nc1 [II-113] | 8.23 |
| N#Cc1ccc(-n2nc3c(c2C(=O)NCCOC(F)(F)F)C(=O)N[C@@]2(CCc4cc(OCC(F)(F)F)ccc42)C3)nc1 [II-114] | 60.3 |
| CC(C)(CNC(=O)c1c2c(nn1-c1ccc(C#N)cn1)C[C@]1(CCc3cc(OCC(F)(F)F)ccc31)NC2=O)C(N)=O [II-115] | 204 |
| N#Cc1ccc(-n2nc3c(c2C(=O)NCC2(CO)CCC2)C(=O)N[C@@]2(CCc4cc(OCC(F)(F)F)ccc42)C3)nc1 [II-116] | 3.96 |
| N#Cc1ccc(-n2nc3c(c2C(=O)N[C@H]2C[C@H](O)C2)C(=O)N[C@@]2(CCc4cc(OCC(F)(F)F)ccc42)C3)nc1 [II-117] | 37.9 |
| N#Cc1ccc(-n2nc3c(c2C(=O)NCC2(O)COC2)C(=O)N[C@@]2(CCc4cc(OCC(F)(F)F)ccc42)C3)nc1 [II-118] | 6.26 |
| N#Cc1ccc(-n2nc3c(c2C(=O)NCC2(O)CCOC2)C(=O)N[C@@]2(CCc4cc(OCC(F)(F)F)ccc42)C3)nc1 (some centres unmarked) [II-119] | 26.8 |
| Cc1ccc(-n2nc3c(c2NC(=O)CS(C)(=O)=O)C(=O)N[C@@]2(CCc4cc(N5CC(F)(F)C5)ccc42)C3)nc1 [II-120] | 9.29 |
| Cc1ccc(-n2nc3c(c2NC(=O)CS(C)(=O)=O)C(=O)N[C@@]2(CCc4cc(C(F)(F)F)ccc42)C3)nc1 [II-122] | 5.68 |
| COCCCNC(=O)c1c2c(nn1-c1ccc(C#N)cn1)C[C@]1(CCc3cc(OCC(F)(F)F)ccc31)NC2=O [II-123] | 21.7 |
| N#Cc1ccc(-n2nc3c(c2C(=O)NCC(F)(F)F)C(=O)N[C@@]2(CCc4cc(OCC(F)(F)F)ccc42)C3)nc1 [II-124] | 19.6 |
| COCCNC(=O)c1c2c(nn1-c1ccc(C#N)cn1)C[C@]1(CCc3cc(OCC(F)(F)F)ccc31)NC2=O [II-125] | 63.5 |
